# From patent US20110098325A1, “PYRIDINE BENZAMIDES AND PYRAZINE BENZAMIDES USED AS PKD INHIBITORS” (CANCER RESEARCH TECHNOLOGY LIMITED, priority 2006, published 2011)
# Target: T1, Murine PKD1 kinase domain (Mus musculus, UniProt Q62101)
# T1 construct: hexahistidine (pFastBac HTb leader) (N); made in house; host or cells: Sf9 insect cells, baculovirus (Bac-to-Bac HT, pFastBac HTb)
# T1 sequence (Q62101 with tags, fused parts or gaps R683W): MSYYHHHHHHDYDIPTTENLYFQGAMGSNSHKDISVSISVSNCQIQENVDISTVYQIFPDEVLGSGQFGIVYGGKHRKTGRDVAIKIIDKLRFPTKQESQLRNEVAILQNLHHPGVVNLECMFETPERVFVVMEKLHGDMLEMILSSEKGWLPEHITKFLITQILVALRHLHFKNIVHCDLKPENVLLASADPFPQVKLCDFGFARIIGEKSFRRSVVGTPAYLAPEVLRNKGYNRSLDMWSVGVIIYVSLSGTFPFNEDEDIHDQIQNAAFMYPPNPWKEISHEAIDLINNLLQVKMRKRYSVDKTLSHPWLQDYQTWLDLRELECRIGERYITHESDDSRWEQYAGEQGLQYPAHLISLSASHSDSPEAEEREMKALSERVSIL
# Assay: PKD1 (Murine Kinase Domain) Enzyme Activity Assay (IMAP fluorescence polarisation)
# Assay type: biochemical
# Details: 10 μM ATP, 60 minutes, room temperature
# Text: The DNA sequence corresponding to murine PKD1 (see FIG. 1) was inserted into pFastBAc Htb (Invitrogen, USA) at BamH1 and EcoR1 sites using standard molecular biology techniques.
# The PKD1 described above was expressed as a hexahistidine tagged protein construct using a commercially available baculoviral expression system that induces protein production in insect cell culture (Bac-to-Bac® HT Baculovirus Expression System, Invitrogen). Protein was typically expressed by inoculating 1 L of sf9 cells with a genetically modified baculovirus containing the gene for the kinase domain of PKD1. Sf9 cells were obtained from ICR Ltd.
# Purification of PKD1 was achieved by standard chromatographic procedures. Capture from crude centrifuged lysed cell supernatant was achieved using metal affinity chromatography (GE Healthcare Life Sciences, HiTrap Chelating chromatography column), and fractions showing PKD1 (as assessed by gel electrophoresis and western blot) were further purified by a single polish purification step performed using a mono Q anion exchange chromatography system (GE Healthcare Life Sciences, HiTrap HP Q column). […] This protocol describes the method for screening compounds as inhibitors of Protein Kinase D activity in a 384 well microplate format fluorescence polarisation IMAP assay performed using the Biomek FX.
# Kinase Enzyme: Murine PKD1 kinase domain at ˜100 μg/mL, was purified from baculovirus (as described above), obtained from aliquots stored at −70° C. PKD was prepared with a final concentration of 0.1 μg/mL by diluting 1:300 in Reaction Buffer (30 μL per 9 mL-5 mL per plate with an additional 4 mL dead volume) and vortexing prior to use. It was necessary to check this concentration regularly in case of enzyme degradation.
# (also known as MAPKAP K2 substrate) was obtained from Molecular Devices (Product code R7127). It was used at 300 nM by diluting 20 μM stock 1:66 in Kinase/Reaction Buffer (135 μL per 9 mL; 75 μL per 5 mL Reaction Buffer for blank wells requiring <1 mL per place with an additional 4 mL dead volume).
# A 1 mM ATP stock in Reaction Buffer was prepared from a 10 mM stock in 20 mM NaOH and stored as aliquots at −70° C. It was used at 40 μM by diluting 1 mM stock 1:25 in Reaction Buffer (240 μL per 6 mL-2 mL per plate with an additional 4 mL dead volume) and vortexing prior to use.
# IMAP Reagents: IMAP Binding Reagent (product code R7207) and Binding Buffer (product code R7208) were obtained from Molecular Devices and stored at +4° C. The beads were gently re-suspended before diluting by 1:400 in buffer (Binding Buffer is supplied as a 5× stock and so was diluted with water prior to use) and then vortexing before addition to wells. 16 mL water with 4 mL Binding Buffer and 50 μL Binding Reagent were used per plate (17 mL per plate with an additional 3 mL dead volume).
# 13 μL Substrate in Reaction Buffer was added to ‘blank’ wells to give 200 nM reaction concentration. […] 2 μL 10% DMSO/water was added to ‘blank’ and ‘control’ wells. 5 μL ATP in Reaction Buffer was added to all wells to give 10 μM reaction concentration. The reaction mixture was then incubated at room temperature for 60 minutes. The incubation period was followed by the addition of 40 μL IMAP Binding Reagent in Binding Buffer to all wells. The reaction was then further incubated at room temperature for […].
# Percentage inhibition was calculated based on activity of the test sample minus the average values in the blank wells relative to the average values measured in control wells minus the average values in the blank wells.
# IC50 values were calculated from 10 point dose sigmoid ‘dose-response’ curves using Xlfit software (IDBS inc, USA). Data were fitted to a 4 parameter logistic model/sigmoidal dose response:
# where: A=fit minimum (locked to 0); B=fit maximum (locked to 100); C=fit midpoint (pre-fit to 1); D=slope at linear portion of curve, hillslope (pre-fit to 0.1)
row,IC50 [µM],SMILES
1,< 1,"CN(C)CCNC(=O)c1cccc(-c2cnc(N)c(-c3ccc(O)c(F)c3)c2)c1 [Y-042, 3-[6-Amino-5-(3-fluoro-4-hydroxy-phenyl)-pyridin-3-yl]-N-(2-dimethylamino-ethyl)-benzamide]"
2,< 1,"COc1ccc(-c2cc(-c3cccc(C(=O)NCCN(C)C)c3)cnc2N)cc1F [Y-043, 3-[6-Amino-5-(3-fluoro-4-methoxy-phenyl)-pyridin-3-yl]-N-(2-dimethylamino-ethyl)-benzamide]"
3,< 1,"Cc1ccc(-c2cc(-c3cccc(C(=O)NCCN(C)C)c3)cnc2N)cc1F [Y-044, 3-[6-Amino-5-(3-fluoro-4-methyl-phenyl)-pyridin-3-yl]-N-(2-dimethylamino-ethyl)-benzamide]"
4,< 1,"CN(C)CCNC(=O)c1cccc(-c2cnc(N)c(-c3ccc(-c4ccccc4)cc3F)c2)c1 [Y-045, 3-[6-Amino-5-(3-fluoro-biphenyl-4-yl)-pyridin-3-yl]-N-(2-dimethylamino-ethyl)-benzamide]"
5,1 to 10,"CC(C)Oc1cccc(-c2cc(-c3cccc(C(=O)NCCN(C)C)c3)cnc2N)c1 [Y-046, 3-[6-Amino-5-(3-isopropoxy-phenyl)-pyridin-3-yl]-N-(2-dimethylamino-ethyl)-benzamide]"
6,1 to 10,"COCc1cccc(-c2cc(-c3cccc(C(=O)NCCN(C)C)c3)cnc2N)c1 [Y-047, 3-[6-Amino-5-(3-methoxymethyl-phenyl)-pyridin-3-yl]-N-(2-dimethylamino-ethyl)-benzamide]"
7,< 1,"COc1cccc(-c2cc(-c3cccc(C(=O)NCCN(C)C)c3)cnc2N)c1 [Y-048, 3-[6-Amino-5-(3-methoxy-phenyl)-pyridin-3-yl]-N-(2-dimethylamino-ethyl)-benzamide]"
8,< 1,"CN(C)CCNC(=O)c1cccc(-c2cnc(N)c(-c3cccc(Oc4ccccc4)c3)c2)c1 [Y-049, 3-[6-Amino-5-(3-phenoxy-phenyl)-pyridin-3-yl]-N-(2-dimethylamino-ethyl)-benzamide]"
9,< 1,"CN(C)CCNC(=O)c1cccc(-c2cnc(N)c(-c3cccc(OC(F)(F)F)c3)c2)c1 [Y-050, 3-[6-Amino-5-(3-trifluoromethoxy-phenyl)-pyridin-3-yl]-N-(2-dimethylamino-ethyl)-benzamide]"
10,< 1,"CN(C)CCNC(=O)c1cccc(-c2cnc(N)c(-c3ccc(OCc4ccccc4)cc3)c2)c1 [Y-051, 3-[6-Amino-5-(4-benzyloxy-phenyl)-pyridin-3-yl]-N-(2-dimethylamino-ethyl)-benzamide]"
11,< 1,"CN(C)CCNC(=O)c1cccc(-c2cnc(N)c(-c3ccc(Cl)c(F)c3)c2)c1 [Y-052, 3-[6-Amino-5-(4-chloro-3-fluoro-phenyl)-pyridin-3-yl]-N-(2-dimethylamino-ethyl)-benzamide]"
12,< 1,"CCSc1ccc(-c2cc(-c3cccc(C(=O)NCCN(C)C)c3)cnc2N)cc1 [Y-053, 3-[6-Amino-5-(4-ethylsulfanyl-phenyl)-pyridin-3-yl]-N-(2-dimethylamino-ethyl)-benzamide]"
13,1 to 10,"COc1cc(F)ccc1-c1cc(-c2cccc(C(=O)NCCN(C)C)c2)cnc1N [Y-054, 3-[6-Amino-5-(4-fluoro-2-methoxy-phenyl)-pyridin-3-yl]-N-(2-dimethylamino-ethyl)-benzamide]"
14,< 1,"COc1cc(-c2cc(-c3cccc(C(N)=O)c3)cnc2N)ccc1F [Y-055, 3-[6-Amino-5-(4-fluoro-3-methoxy-phenyl)-pyridin-3-yl]-benzamide]"
15,< 1,"COc1cc(-c2cc(-c3cccc(C(=O)NCCN(C)C)c3)cnc2N)ccc1F [Y-056, 3-[6-Amino-5-(4-fluoro-3-methoxy-phenyl)-pyridin-3-yl]-N-(2-dimethylamino-ethyl)-benzamide]"
16,< 1,"CN(C)CCNC(=O)c1cccc(-c2cnc(N)c(-c3ccc(F)c(C(F)(F)F)c3)c2)c1 [Y-057, 3-[6-Amino-5-(4-fluoro-3-trifluoromethyl-phenyl)-pyridin-3-yl]-N-(2-dimethylamino-ethyl)-benzamide]"
